In patent US20050170393A1, “OATPB transporters expressed in blood brain barrier cells” (Xenoport, Inc., priority 2004, published 2005):
Each block holds one compound with its values, some of them ahead of it.

Columns and labels:
OATPB transporter = target: T1, OATPB transporter (Homo sapiens, UniProt O94956); assay: Direct uptake assay in tet-induced and non-induced OATPB-HEK/TREx cells (LC-MS-MS); assay type: cell-based; settings: 125, 250, 500 or 1000 μM, 20 minutes at room temperature, with and without tetracycline (FIG. 7)
T1 construct: expressed in transfected cells
T1 sequence (O94956 1-709): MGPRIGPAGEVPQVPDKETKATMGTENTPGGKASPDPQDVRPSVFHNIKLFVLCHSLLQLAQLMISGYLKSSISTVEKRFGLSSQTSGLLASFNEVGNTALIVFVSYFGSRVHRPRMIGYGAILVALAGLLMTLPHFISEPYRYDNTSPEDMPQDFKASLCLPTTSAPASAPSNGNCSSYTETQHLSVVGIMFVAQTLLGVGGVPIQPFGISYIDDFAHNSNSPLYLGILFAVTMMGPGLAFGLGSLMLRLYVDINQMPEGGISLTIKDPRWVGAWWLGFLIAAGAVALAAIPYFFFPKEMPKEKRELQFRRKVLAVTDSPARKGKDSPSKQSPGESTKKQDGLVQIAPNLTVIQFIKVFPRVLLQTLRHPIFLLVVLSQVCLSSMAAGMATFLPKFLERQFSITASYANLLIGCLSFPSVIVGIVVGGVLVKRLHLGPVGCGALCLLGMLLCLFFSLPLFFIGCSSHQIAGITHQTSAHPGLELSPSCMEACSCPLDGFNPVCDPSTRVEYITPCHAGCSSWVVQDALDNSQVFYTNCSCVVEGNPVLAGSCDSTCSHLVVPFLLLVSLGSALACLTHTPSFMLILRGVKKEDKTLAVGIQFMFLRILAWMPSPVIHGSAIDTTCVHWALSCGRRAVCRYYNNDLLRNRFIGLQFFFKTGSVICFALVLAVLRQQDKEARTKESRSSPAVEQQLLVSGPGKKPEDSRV
Text: To increase the throughput of OATPB compound screening, a mammalian cell assay was developed using an inducible expression system. OATPB was subcloned into a plasmid that allows for inducible expression by tetracycline (TREx plasmid, Invitrogen Inc. Carlsbad Calif.). The OATPB-HEK plasmid was […] transfected into a HEK cell line engineered for tetracycline-inducible expression (HEK-TREx, Invitrogen) and stable clones were isolated by G418 selection and […] (FACS).
In order to measure whether test compounds are actively translocated across the membrane, and to determine the maximal transport rate, a direct uptake method can be used in which transport of a test compound is measured by mass spectroscopy. For direct uptake measurements using mass spectroscopy, OATPB-HEK/TREx cells can be prepared similarly to those used for competition studies (described above). […] The supernatant is analyzed by LC-MS-MS. As a negative control, uptake is measured in cells not treated with tetracycline, or by competition with another substrate such as estrone-3-sulfate or bromosulphophthalein (3 mM).
The uptake of PGFα by OATPB-HEK/TREx cells was measured as described in Example 3. […] The supernatant was analyzed by LC-MS-MS. As a negative control, uptake was measured in cells not treated with tetracycline.

OATPB [1] = target: T2, OATPB (Homo sapiens, UniProt O94956); assay: ^3H-estrone sulfate uptake into oocytes injected with OATPB cRNA; assay type: cell-based; set-up: expressed in transfected cells; host or cells: Xenopus oocytes injected with OATPB cRNA; settings: oocytes expressing OATPB versus noninjected controls (FIG. 2)
T2 sequence (O94956 1-709): T1 sequence (O94956 1-709)

OATPB [2] = target: T2, OATPB; settings: cited from earlier work
PgP = target: T3, PgP (Homo sapiens, UniProt P08183); assay: Cellular transwell monolayer efflux assay in MDCK cells transfected with TREx-PgP; assay type: cell-based
T3 construct: expressed in transfected cells; host or cells: MDCK cells
Experimental: A third type of efflux transporter assay is the cellular transwell monolayer efflux assay. […] The cells form a polarized monolayer. The transwell dishes have apical and basolateral chambers that are separated by the filter membrane on which the polarized monolayer is situated. Assays are performed by placing a test compound in either the apical or basolateral chamber, followed by sampling the opposite chamber after a predetermined period of time such as 60-120 minutes and measuring the amount of the test compound. The test compound can be measured by methods such as radiolabel detection or LC-MS-MS analysis. Assays are performed in the presence and absence of an efflux transporter inhibitor or competitor. Efflux transporter inhibitors or competitors increase apical to basolateral transport and decrease basolateral to apical transport of compounds that are efflux transporter substrates. Apparent permeability (Papp) of test compounds is measured. […] Test compounds that generate ratios between 1.5 and 2.0 require additional testing to determine if they are efflux transporter substrates.
MDCK cells transfected with the tetracycline-inducible TREx-PgP expression vector were seeded on polycarbonate filter membranes in transwell dishes and grown for 3-5 days, yielding a polarized monolayer with tight junctions between cells. […] The left set of bars depicts apical to basolateral transport, while the right set of bars depicts basolateral to apical transport.

[3] = 2.5 nM ^3H-vinblastine, in the presence of 250 μM verapamil versus absence (FIG. 6)

T3 sequence (P08183 whole entry): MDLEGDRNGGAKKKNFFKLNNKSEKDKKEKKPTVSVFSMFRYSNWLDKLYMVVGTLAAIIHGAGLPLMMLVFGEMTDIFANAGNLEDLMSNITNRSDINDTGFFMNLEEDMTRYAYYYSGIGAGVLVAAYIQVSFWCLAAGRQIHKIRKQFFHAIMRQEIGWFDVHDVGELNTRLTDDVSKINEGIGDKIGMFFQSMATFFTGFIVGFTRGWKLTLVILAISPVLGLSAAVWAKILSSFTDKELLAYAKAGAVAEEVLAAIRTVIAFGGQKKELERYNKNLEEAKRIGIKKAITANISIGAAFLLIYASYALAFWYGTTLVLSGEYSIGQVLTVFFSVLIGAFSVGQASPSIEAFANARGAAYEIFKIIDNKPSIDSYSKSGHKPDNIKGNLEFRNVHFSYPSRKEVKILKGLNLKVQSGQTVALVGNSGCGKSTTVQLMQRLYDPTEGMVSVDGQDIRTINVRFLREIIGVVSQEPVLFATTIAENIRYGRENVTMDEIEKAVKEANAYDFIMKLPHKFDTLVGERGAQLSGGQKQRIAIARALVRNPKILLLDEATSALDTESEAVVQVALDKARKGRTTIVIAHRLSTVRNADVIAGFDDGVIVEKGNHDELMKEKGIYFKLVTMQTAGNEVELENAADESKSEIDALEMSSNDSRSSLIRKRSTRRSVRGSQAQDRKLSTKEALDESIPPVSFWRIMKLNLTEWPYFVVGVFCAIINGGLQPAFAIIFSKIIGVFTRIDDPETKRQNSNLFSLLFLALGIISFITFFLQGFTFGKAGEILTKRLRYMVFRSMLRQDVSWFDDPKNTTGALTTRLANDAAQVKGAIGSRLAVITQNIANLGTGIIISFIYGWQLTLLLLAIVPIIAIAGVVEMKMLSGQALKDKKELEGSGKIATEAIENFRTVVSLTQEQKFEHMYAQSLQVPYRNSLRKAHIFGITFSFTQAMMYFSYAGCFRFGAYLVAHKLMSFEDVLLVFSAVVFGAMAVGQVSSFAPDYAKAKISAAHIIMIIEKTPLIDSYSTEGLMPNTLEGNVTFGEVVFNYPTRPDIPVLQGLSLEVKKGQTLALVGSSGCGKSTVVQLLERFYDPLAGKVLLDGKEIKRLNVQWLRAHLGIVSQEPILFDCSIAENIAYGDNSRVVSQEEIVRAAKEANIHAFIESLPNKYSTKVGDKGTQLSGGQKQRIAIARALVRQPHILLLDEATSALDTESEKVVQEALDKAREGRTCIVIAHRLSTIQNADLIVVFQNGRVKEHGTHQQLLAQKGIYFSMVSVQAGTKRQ

OATPB substrate status (OATPB transporter): is a substrate for the OATPB transporter
SMILES: CCCCC[C@H](O)/C=C/[C@@H]1[C@@H](C/C=C\CCCC(=O)O)[C@@H](O)C[C@H]1O [PGFα]

SMILES: C[C@]12CC[C@@H]3c4ccc(OS(=O)(=O)O)cc4CC[C@H]3[C@@H]1CCC2=O [Estrone-3-sulfate]
^3H-estrone-3-sulfate uptake (OATPB [1]): higher levels of ^3H-estrone-3-sulfate uptake than noninjected controls
Reported Affinity for OATPB (OATPB [2]): 0.1 mM

Apical to basolateral transport (PgP; [3]): strongly increased
Basolateral to apical transport (PgP; [3]): strongly decreased
PgP substrate status (PgP; conclusion from the transwell assay with and without verapamil): is a substrate of PgP
SMILES: CC[C@]1(O)C[C@@H]2CN(CCc3c([nH]c4ccccc34)[C@@](C(=O)OC)(c3cc4c(cc3OC)N(C)[C@H]3[C@@](O)(C(=O)OC)[C@H](OC(C)=O)[C@]5(CC)C=CCN6CC[C@]43[C@@H]65)C2)C1 [^3H-vinblastine]

SMILES: O=C1OC(c2ccc(O)c(S(=O)(=O)O)c2)(c2ccc(O)c(S(=O)(=O)O)c2)c2c(Br)c(Br)c(Br)c(Br)c21 [Bromosulfophthalein]
Reported Affinity for OATPB (OATPB [2]): 0.04 mM
